Several values for one entry are separate records, joined by “and”; a condition that tells them apart may be missing. Equal entries are not always repeated.
Tested on: GEMS receptors with CBPA11 (BclXL–LD3 and BclXLhigh variants), STAT3-driven SEAP in HEK293T cells
Assay: GEMS SEAP reporter assay, CBPA11 (BclXLhigh, LD3-v and BclXL-v variants) with A-1155463
Type: cell-based
Parameters: key to Raw data (SEAP) / SEAP, replicate values / Raw data of Figure 5b / Raw data Figure 5e / Raw data of Independent repeat of CBPA11-v1 vs CBPA11-v1-LD3v3 / Raw data of Independent repeat of CBPA11-v3 vs CBPA11-v3-LD3v3 / Raw data of Figure 5b, CBPA11-v1-LD3v3 (SEAP reporter raw value, single replicate) / Raw data of Figure 5b, CBPA11-v1 (SEAP reporter raw value, single replicate): SEAP activity in U/L in culture supernatant
Source text: To rationally design a CBP responding to a chemical input, we used BclXL as the druglow receptor, LD3 as the designed binder and a designed BclXL variant as the drughigh receptor (referred to as BclXLhigh) to construct a CBP responsive to BclXL inhibitors (Fig. 4a). To design BclXLhigh, we used a multistate design computational protocol described elsewhere[26] […] Thus, BclXLhigh-v(1–3) were chosen as the functional drughigh receptors, resulting in three A-1155463-controlled CBPs (referred to as CBPA11-v(1–3)) (Fig. 4c–e).
HEK293T cells were seeded in a 96-well plate 24 h before transfection. The transfection mix in each well consisted of 3 ng of constitutive human CMV promoter driven mammalian STAT3 expression vector (PhCMV-STAT3-pA), 30 ng of STAT3-induced reporter expression (OStat3-PhCMVmin-SEAP-pA) and 50 ng of expression vectors for each GEMS receptor chain (PSV40-IgK-(drughigh receptor)-EpoRm-IL-6RBm-pA and PSV40-IgK-(druglow receptor-GGGGSX3-LD3)-EpoRm-IL-6RBm-pA). For the specific drughigh receptor and druglow receptor used in the different cellular assays, they are indicated as wild type or with mutations. Then, plasmid DNA was mixed with 50 μl opti-MEM (Thermo Fisher) and 600 ng of polyethyleneimine (Polysciences, catalog no. 24765-1). For drug treatment experiments, drugs were added 12 h post-transfection and incubated with cells for 24 h before the SEAP reporter detection assay.
SEAP activity (U l^−1) in cell culture supernatants was quantified by kinetic measurements at 405 nm (1 minute per measurement for 30 cycles) of absorbance increase due to phosphatase-mediated hydrolysis of para-nitrophenyl phosphate (pNPP).
Binding affinities of SPR drug competition assays were calculated using three-parameter nonlinear regression in GraphPad Prism (v.8.3.0). Representative data of cell assays are presented as individual values and mean values (bars). n = 3 refers to biological replicates. All IC50 or EC50 values of cell assays reported were calculated using four-parameter nonlinear regression ± s.d. Bandpass features of cutoff concentrations and Bandwidth90% were estimated based on the curve fitted using bell-shaped curve nonlinear regression in GraphPad Prism (v.8.3.0). […]
Supplementary Figure 4: Design, screening and validation of BclXLhigh variants. a) Screening of BclXLhigh variants in the GEMS platform. […]
Dissociation constant measurement of BclXLhigh-v(1-3) and LD3. Equilibrium curves are fitted using […]
BclXLhigh-v1 (purple), BclXLhigh-v2 (blue), […]
a) Bcl2high-based bandpass filter designs were developed and to respond to different concentrations of […]
corresponding inhibitor. c) Screening of Bcl2high-based bandpass filter variants in the GEMS platform.
The designed binder LD3 was fused to the druglow-receptor (PSV40-IgK-Bcl2-LD3-EpoRm-IL-6RBm-pA) in one EpoR chain and Bcl2high variants with the insensitive Bcl2 (iBcl2) as control in the other EpoR chain (PSV40-IgK-Bcl2high-EpoRm-IL-6RBm-pA). HEK293T cells were transfected with indicated […]
the mean of six biological replicates ± s.d., overlaid with a scatter dot plot of the original data points.
(1 picture or pasted object on this page, not shown here)
Supplementary Figure 6: Binding affinities and drug resistances of Bcl2high-v(2,4,5) assessed by […]
a) Measurement of dissociation constants for Bcl2high-v(2,4,5) and LD3 interactions. Equilibrium curves […]
Bcl2high-v(2,4,5) measured by SPR. 5 μM of Bcl2 or indicated variants were mixed with 10 μM of […]
Bcl2high-v2 (red), Bcl2high-v4
Supplementary Figure 7: Screening of LD3 variants in CBPA11-v(1-3) and raw data of CBPA11-v(1,3) with LD3-v3 variant. a-c) Screening of LD3 and LD3-v(1-3) variants in complex with BclXL for more sensitive CBPA11-v1 (a), CBPA11-v2 (b), CBPA11-v3 (c) in the GEMS platform. The LD3 variants replaced the role of LD3 (PSV40-IgK-BclXL-LD3-v(1-3)-EpoRm-IL-6RBm-pA) in one EpoR chain and BclXLhigh-v(1-3) in the other EpoR chain (PSV40-IgK-BclXLhigh-V(1-3)-EpoRm-IL-6RBm-pA). HEK293T cells were transfected with […]

[1] = CBPA11-v1-LD3v3, A-1155463 1 nM
[2] = CBPA11-v1-LD3v3, A-1155463 3.18 nM
[3] = CBPA11-v1-LD3v3, A-1155463 10 nM
[4] = CBPA11-v1-LD3v3, A-1155463 31.8 nM
[5] = CBPA11-v1-LD3v3, A-1155463 100 nM
[6] = CBPA11-v1-LD3v3, A-1155463 318 nM
[7] = CBPA11-v1-LD3v3, A-1155463 1000 nM
[8] = CBPA11-v1-LD3v3, A-1155463 3180 nM
[9] = CBPA11-v1-LD3v3, A-1155463 10000 nM

Structure (SMILES): CN(C)CC#Cc1ccc(OCCCc2sc(N3CCc4cccc(C(=O)Nc5nc6ccccc6s5)c4C3)nc2C(=O)O)c(F)c1 [A-1155463]
- Normalized data of Figure 5b [1]: 12.3584 and 11.9384 and 10.5903
- Raw data of Figure 5b [1]: 17.44 and 15.4815 and 15.2319
- Raw data of Independent repeat of CBPA11-v1 vs CBPA11-v1-LD3v3 [1]: 31.801 and 28.5095 and 29.309
- Raw data of Independent repeat of CBPA11-v1 vs CBPA11-v1-LD3v3 (CBPA11-v1-LD3v3, A-1155463 3.16 nM): 34.9091 and 28.121 and 21.957
- Normalized data of Figure 5b [2]: 13.5394 and 12.5226 and 10.9319
- Raw data of Figure 5b [2]: 19.1065 and 16.239 and 15.7232
- Normalized data of Figure 5b [3]: 25.1514 and 28.7722 and 29.2973
- Raw data of Figure 5b [3]: 35.4931 and 37.3111 and 42.1378
- Raw data of Independent repeat of CBPA11-v1 vs CBPA11-v1-LD3v3 [3]: 179.972 and 131.844 and 140.391
- Raw data of Independent repeat of CBPA11-v1 vs CBPA11-v1-LD3v3 (CBPA11-v1-LD3v3, A-1155463 31.6 nM): 226.429 and 187.26 and 191.409
- Normalized data of Figure 5b [4]: 78.9386 and 88.4215 and 71.2191
- Raw data of Figure 5b [4]: 111.396 and 114.663 and 102.433
- Normalized data of Figure 5b [5]: 100
- Raw data of Figure 5b [5]: 141.118 and 129.678 and 143.828
- Raw data of Independent repeat of CBPA11-v1 vs CBPA11-v1-LD3v3 [5]: 335.207 and 287.921 and 227.786
- Raw data of Independent repeat of CBPA11-v1 vs CBPA11-v1-LD3v3 (CBPA11-v1-LD3v3, A-1155463 316 nM): 270.923 and 196.943 and 173.263
- Normalized data of Figure 5b [6]: 62.5942 and 62.3431 and 56.6992
- Raw data of Figure 5b [6]: 88.3315 and 80.8452 and 81.5497
- Normalized data of Figure 5b [7]: 29.9151 and 30.048 and 29.0586
- Raw data of Figure 5b [7]: 42.2154 and 38.9656 and 41.7945
- Raw data of Independent repeat of CBPA11-v1 vs CBPA11-v1-LD3v3 [7]: 123.233 and 79.9582 and 97.1187
- Raw data of Independent repeat of CBPA11-v1 vs CBPA11-v1-LD3v3 (CBPA11-v1-LD3v3, A-1155463 3160 nM): 45.1078 and 32.2032 and 26.5323
- Normalized data of Figure 5b [8]: 11.3098 and 14.9107 and 12.4987
- Raw data of Figure 5b [8]: 15.9601 and 19.3359 and 17.9766
- Normalized data of Figure 5b [9]: 8.9981 and 9.291 and 5.288
- Raw data of Figure 5b [9]: 12.6979 and 12.0483 and 7.606
- Raw data of Independent repeat of CBPA11-v1 vs CBPA11-v1-LD3v3 [9]: 23.0011 and 17.3094 and 15.2043
- Raw data of Independent repeat of CBPA11-v3 vs CBPA11-v3-LD3v3 (CBPA11-v3, A-1155463 0.01 nM): 26.5862 and 23.5891 and 24.9373
- Normalized data Figure 5e (CBPA11-v3, A-1155463 1 nM): 14.7288 and 13.7384 and 12.9495
- Normalized data of Figure 5b (CBPA11-v3, A-1155463 1 nM): 2.438 and 2.3416 and 2.8403
- Raw data of Figure 5b (CBPA11-v3, A-1155463 1 nM): 13.0926 and 12.3286 and 14.9355
- Raw data of Independent repeat of CBPA11-v3 vs CBPA11-v3-LD3v3 (CBPA11-v3, A-1155463 1 nM): 77.8998 and 72.2772 and 68.2722
- Raw data of Independent repeat of CBPA11-v3 vs CBPA11-v3-LD3v3 (CBPA11-v3, A-1155463 3.16 nM): 101.26 and 74.5174 and 69.017
- Normalized data Figure 5e (CBPA11-v3, A-1155463 3.18 nM): 19.1455 and 14.1642 and 13.0908
- Normalized data Figure 5e (CBPA11-v3, A-1155463 10 nM): 52.8574 and 45.1451 and 43.5321
- Normalized data of Figure 5b (CBPA11-v3, A-1155463 10 nM): 22.9212 and 24.7467 and 27.0042
- Raw data of Figure 5b (CBPA11-v3, A-1155463 10 nM): 123.11 and 130.292 and 142
- Raw data of Independent repeat of CBPA11-v3 vs CBPA11-v3-LD3v3 (CBPA11-v3, A-1155463 10 nM): 279.56 and 237.506 and 229.509
- Raw data of Independent repeat of CBPA11-v3 vs CBPA11-v3-LD3v3 (CBPA11-v3, A-1155463 31.6 nM): 420.603 and 418.534 and 369.593
- Normalized data Figure 5e (CBPA11-v3, A-1155463 31.8 nM): 79.525 and 79.5547 and 70.1024
- Normalized data of Figure 5b (CBPA11-v3, A-1155463 31.8 nM): 52.5804 and 56.6221 and 62.0483
- Raw data of Figure 5b (CBPA11-v3, A-1155463 31.8 nM): 282.41 and 298.117 and 326.277
- Normalized data Figure 5e (CBPA11-v3, A-1155463 100 nM): 93.7695 and 93.9386 and 100
- Normalized data of Figure 5b (CBPA11-v3, A-1155463 100 nM): 84.9271 and 84.8554 and 85.7543
- Raw data of Figure 5b (CBPA11-v3, A-1155463 100 nM): 456.144 and 446.765 and 450.933
- Normalized data Figure 5e (CBPA11-v3, A-1155463 318 nM): 100 and 99.7629
- Normalized data of Figure 5b (CBPA11-v3, A-1155463 318 nM): 100
- Raw data of Figure 5b (CBPA11-v3, A-1155463 318 nM): 537.1 and 526.502 and 525.843
